From ChEMBL document CHEMBL6120984, “Novel potent SOS1 inhibitors containing a tricyclic quinazoline scaffold: A joint view of experiments and simulations” (Eur J Med Chem, 2025)
pIC50: −log10 of the molar value. Calls of active or inactive are those of the source. The calls are words filed in the database; no cut-off is given here.

Experiments:
[1] = Elimination rate constant in male CD-1 mouse at 10 mg/kg, po measured after 24 hrs by LC-MS/MS analysis; assay type: ADME, organism-based; details: in vivo
MIA PaCa-2 [2] = assay: Antiproliferative activity against human MIA PaCa-2 cells expressing KRAS G12C mutant assessed as maximal inhibition of cell proliferation incubated for 14 days in 3-D culture condition relative to control; assay type: functional; details: time 14 day
MIA PaCa-2 [3] = assay: Antiproliferative activity against human MIA PaCa-2 cells expressing KRAS G12C mutant assessed as inhibition of cell proliferation incubated for 14 days in 3-D culture condition; assay type: functional, cell-based; details: MIA PaCa-2, 336 h
[4] = Inhibition of ERK phosphorylation in human DLD-1 cells expressing KRAS G13D mutant incubated for 60 mins by HTRF assay; assay type: cell-based; details: DLD-1, 1 h
NCI-H358 = assay: Antiproliferative activity against human NCI-H358 cells expressing KRAS G12C mutant assessed as inhibition of cell proliferation; assay type: functional, cell-based
[5] = Half-life in male CD-1 mouse at 10 mg/kg, po measured after 24 hrs by LC-MS/MS analysis; assay type: ADME, organism-based; details: in vivo
[6] = Tmax in male CD-1 mouse at 10 mg/kg, po measured after 24 hrs by LC-MS/MS analysis; assay type: ADME, organism-based; details: in vivo
NCI-H441 = assay: Antiproliferative activity against human NCI-H441 cells expressing KRAS G12V mutant assessed as inhibition of cell proliferation; assay type: functional, cell-based
[7] = Cmax in male CD-1 mouse at 10 mg/kg, po measured after 24 hrs by LC-MS/MS analysis; assay type: ADME, organism-based; details: in vivo
[8] = AUC in male CD-1 mouse at 10 mg/kg, po measured after 24 hrs by LC-MS/MS analysis; assay type: ADME, organism-based; details: in vivo
Mus musculus [9] = assay: In vivo inhibition of AKT phosphorylation in female BALB/c nude mouse xenografted with human MIA PaCa-2 cells assessed as effect on phosphorylated AKT level in tumor at 50 mg/kg, po administered twice daily for 21 days; assay type: functional, organism-based; details: time 21.0 day
[10] = MRT in male CD-1 mouse at 10 mg/kg, po measured after 24 hrs by LC-MS/MS analysis; assay type: ADME, organism-based; details: in vivo
MIA PaCa-2 [11] = assay: Antitumor activity against human MIA PaCa-2 cells xenografted in female BALB/c nude mouse assessed as tumor growth inhibition at 50 mg/kg, po administered twice daily for 21 days relative to control; assay type: functional; details: MIA PaCa-2, 504 h, time 21 day, read-out: TGI
DLD-1 = assay: Antiproliferative activity against human DLD-1 cells expressing KRAS G13D mutant assessed as inhibition of cell proliferation; assay type: functional, cell-based
Mus musculus [12] = assay: In vivo inhibition of ERK phosphorylation in female BALB/c nude mouse xenografted with human MIA PaCa-2 cells assessed as effect on phosphorylated ERK level in tumor at 50 mg/kg, po administered twice daily for 21 days; assay type: functional, organism-based; details: time 21.0 day
NCI-H520 = assay: Antiproliferative activity against human NCI-H520 cells expressing wildtype KRAS assessed as inhibition of cell proliferation; assay type: functional, cell-based
SOS1-KRAS = SOS1-KRAS (Homo sapiens, UniProt Q07889); assay: Inhibition of 6His peptide-tagged recombinant human SOS1 (564 to 1049 residues)/N-terminal GST-tagged human recombinant KRAS G12C mutant protein-protein interaction incubated for 1 hrs by HTRF assay; assay type: protein-complex assay
Sequence of SOS1-KRAS (Q07889 whole entry, looked up, stated change not applied, the tested form may be a part): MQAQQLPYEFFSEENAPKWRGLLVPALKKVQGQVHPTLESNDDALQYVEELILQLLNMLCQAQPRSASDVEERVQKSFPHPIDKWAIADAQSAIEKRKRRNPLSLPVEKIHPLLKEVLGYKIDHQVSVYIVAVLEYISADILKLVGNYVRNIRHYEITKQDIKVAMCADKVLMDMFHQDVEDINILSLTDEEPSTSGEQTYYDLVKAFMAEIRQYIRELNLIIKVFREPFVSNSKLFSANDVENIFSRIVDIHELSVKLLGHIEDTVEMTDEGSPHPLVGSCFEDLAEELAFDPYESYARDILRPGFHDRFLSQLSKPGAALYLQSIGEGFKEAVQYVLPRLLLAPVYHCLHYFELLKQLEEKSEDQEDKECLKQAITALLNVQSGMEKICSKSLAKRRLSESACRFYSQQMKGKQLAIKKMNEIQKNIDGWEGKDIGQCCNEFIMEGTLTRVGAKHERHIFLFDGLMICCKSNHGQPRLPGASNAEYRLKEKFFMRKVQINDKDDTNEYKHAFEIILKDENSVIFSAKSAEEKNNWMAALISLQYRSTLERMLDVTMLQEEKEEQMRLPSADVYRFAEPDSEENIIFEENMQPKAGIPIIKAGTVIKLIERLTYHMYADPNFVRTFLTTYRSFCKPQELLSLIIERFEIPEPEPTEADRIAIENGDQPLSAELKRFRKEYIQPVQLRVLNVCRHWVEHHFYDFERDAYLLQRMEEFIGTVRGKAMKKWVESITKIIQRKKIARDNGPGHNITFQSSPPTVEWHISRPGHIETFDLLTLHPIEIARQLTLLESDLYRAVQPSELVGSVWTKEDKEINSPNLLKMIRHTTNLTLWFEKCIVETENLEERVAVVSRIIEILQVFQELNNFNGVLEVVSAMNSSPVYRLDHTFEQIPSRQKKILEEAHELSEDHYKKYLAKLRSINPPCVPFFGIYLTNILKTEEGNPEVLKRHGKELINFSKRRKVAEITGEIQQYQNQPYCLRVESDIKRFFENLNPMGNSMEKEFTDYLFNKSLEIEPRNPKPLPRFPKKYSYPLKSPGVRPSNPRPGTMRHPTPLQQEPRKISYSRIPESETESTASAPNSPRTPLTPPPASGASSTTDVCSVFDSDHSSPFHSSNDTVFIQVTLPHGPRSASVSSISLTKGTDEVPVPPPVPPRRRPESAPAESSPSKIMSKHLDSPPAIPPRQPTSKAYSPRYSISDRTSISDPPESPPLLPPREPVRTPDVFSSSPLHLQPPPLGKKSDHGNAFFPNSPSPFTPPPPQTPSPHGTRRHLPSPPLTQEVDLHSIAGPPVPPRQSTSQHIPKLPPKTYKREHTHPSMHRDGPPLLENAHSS

[13] = Therapeutic index, ratio of IC50 for human MCF-10A cells to IC50 for human NCI-H358 cells expressing KRAS G12C mutant; assay type: toxicity; details: read-out: Ratio IC50
[14] = Toxicity in female BALB/c nude mouse xenografted with human MIA PaCa-2 cells assessed as animal death at 50 mg/kg, po administered twice daily for 21 days; assay type: organism-based; details: in vivo, 504 h, time 21 day
[15] = Therapeutic index, ratio of IC50 for human MCF-10A cells to IC50 for human DLD-1 cells expressing KRAS G13D mutant; assay type: toxicity; details: MCF-10A cells versus DLD-1 cells expressing KRAS G13D mutant, read-out: Ratio IC50
[16] = Therapeutic index, ratio of IC50 for human MCF-10A cells to IC50 for human MIA PaCa-2 cells expressing KRAS G12C mutant; assay type: toxicity; details: read-out: Ratio IC50
[17] = Toxicity in female BALB/c nude mouse xenografted with human MIA PaCa-2 cells assessed as body weight loss at 50 mg/kg, po administered twice daily for 21 days; assay type: organism-based; details: in vivo, 504 h, time 21 day
[18] = Therapeutic index, ratio of IC50 for human MCF-10A cells to IC50 for human NCI-H441 cells expressing KRAS G12V mutant; assay type: toxicity; details: read-out: Ratio IC50
[19] = Cytotoxicity against human MCF-10A cells assessed as inhibition of cell proliferation

Compound | k el at 24 h [1] [s⁻¹] | pIC50 (MIA PaCa-2 [3]) | pIC50 [4] | half-life [5] [h] | Tmax [6] [h] | Cmax [7] [ng/mL] | AUC at 24 h [8] [ng·h/mL] | MRT [10] [h] | pIC50 (SOS1-KRAS) | Imax (MIA PaCa-2 [2]) [%] | other results
C=C(F)C(=O)N1CCN(c2nc(OC[C@@H]3CCCN3C)nc3c2CCN(c2cccc4cccc(Cl)c24)C3)C[C@@H]1CC#N [ADAGRASIB] |  | 6.60 |  |  |  |  |  |  |  | 89 | 
Cc1nc(N[C@H](C)c2cccc(C(F)F)c2F)c2cc3c(cc2n1)OCCN3C(=O)N1CCN(C)CC1 |  | 6.18 | 7.01 |  |  |  |  |  | 7.62 | 79 | 
Cc1nc(N[C@H](C)c2cccc(C(F)F)c2F)c2cc3c(cc2n1)OCCN3C(=O)C1CCN(C(C)C)CC1 | 0.000117 | 6.96 | 7.74 | 1.65 | 1.08 | 790 | 2910 | 2.83 | 8.29 | 86 | selectivity ratio [13]: > 400; Activity [14]: Non-toxic; selectivity ratio [15]: > 400; selectivity ratio [16]: > 400; pIC50 (NCI-H358): 7.15; pIC50 (NCI-H441): 6.92; Activity [17]: Non-toxic; selectivity ratio [18]: > 400; inhibition (Mus musculus [9]): Active; pIC50 [19]: 4.35; inhibition in vivo at 50 mg/kg (MIA PaCa-2 [11]): 70.5%; pIC50 (DLD-1): 7.15; inhibition (Mus musculus [12]): Active; pIC50 (NCI-H520): 5.54

The next lines start with results.

k el at 24 h [1] [s⁻¹] | pIC50 (MIA PaCa-2 [3]) | pIC50 [4] | half-life [5] [h] | Tmax [6] [h] | Cmax [7] [ng/mL] | AUC at 24 h [8] [ng·h/mL] | MRT [10] [h] | pIC50 (SOS1-KRAS) | Compound | Imax (MIA PaCa-2 [2]) [%] | other results
0.000119 | 6.82 | 7.52 | 1.67 | 0.33 | 870 | 2300 | 2.44 |  | COc1cc2nc(C)nc(N[C@H](C)c3cc(N)cc(C(F)(F)F)c3)c2cc1O[C@H]1CCOC1 | 85 | pIC50 (NCI-H358): 6.92; pIC50 (NCI-H441): 6.80; inhibition (Mus musculus [9]): Active; inhibition in vivo at 50 mg/kg (MIA PaCa-2 [11]): 56.3%; pIC50 (DLD-1): 7.00; inhibition (Mus musculus [12]): Active; pIC50 (NCI-H520): 5.58
0.000111 | 6.85 | 7.68 | 1.72 | 0.5 | 650 | 1920 | 2.11 | 8.25 | Cc1nc(N[C@H](C)c2cccc(C(F)F)c2F)c2cc3c(cc2n1)OCCN3C(=O)C1CCN(C)CC1 | 82 | 
 | 5.88 | 7.15 |  |  |  |  |  | 7.72 | Cc1nc(N[C@H](C)c2cccc(C(F)F)c2F)c2cc3c(cc2n1)OCCN3C(=O)C1CCOCC1 | 76 | 
 | < 5.00 | < 5.52 |  |  |  |  |  | 6.32 | Cc1nc(N[C@H](C)c2cccc(C(F)F)c2F)c2cc3c(cc2n1)OCCN3C(=O)N1CCN(C)C[C@@H]1C | 26 | 
 | 5.82 | 6.48 |  |  |  |  |  | 7.03 | Cc1nc(N[C@H](C)c2cccc(C(F)F)c2F)c2cc3c(cc2n1)OCCN3C(=O)C1CN(C)C1 | 67 | 
